US11492636B2, “Modified bialaphos resistance acetyltransferase compositions and uses thereof” (Whitehead Institute for Biomedical Research, priority 2016, dated 2022)
Several values for one entry are separate records, joined by “and”; a condition that tells them apart may be missing. Equal entries are not always repeated.

Molecular target: T1, BAR (Streptomyces hygroscopicus, UniProt P16426)
T1 construct: made in house; host or cells: E. coli BL21(DE3)
Assay: In vitro enzyme kinetic assays of recombinant BAR against native and non-native substrates
Assay type: biochemical
Conditions: for in vitro substrate of BAR (N-acetyltransferase activity): recombinant BAR, up to 8.4 mM substrate; for KM values of BAR against aminoadipate and tryptophan (estimated): substrates reached solubility limit before saturation
Source text: The BAR coding sequence was amplified by PCR (KaPa HiFi HotStart polymerase; KaPa Biosystems) from genomic DNA extracted from homozygous plants of the SAIL line SAIL_1165_B02 using primers SAIL_BAR_F_pPROEX and SAIL_BAR_R_pPROEX (see Table 3) and then cloned into pProEX Hta (Invitrogen) via EcoRI and HindIII resulting in a 6×His-BAR fusion construct. 6×His-BAR was expressed in E. coli BL21(DE3) grown in Luria-Bertani medium. At an optical density at 600 nm of 0.6, protein expression was induced with 1.0 mM isopropylthio-β-galactoside (IPTG), and cells were grown at 37° C. for 2.5 h. Cells from a 200 mL culture were harvested by centrifugation and resuspended in 8 mL binding buffer (20 mM HEPES-KOH pH 7.4, 0.5 M NaCl, 10% (v/v) glycerol, 20 mM imidazole) supplemented with 3 U mL^−1 DNase (Promega), 2 mM MgCl2 and 1/10 of a tablet containing a protease inhibitor cocktail (Complete; Roche Applied Science). Cell lysis was performed by use of a high-pressure cell breaker (Cell Disruption System; Constant Systems) at a pressure of 150 MPa. All the following steps were carried out at 4° C. The lysate was centrifuged (16,000 g, 20 min) and a 50% (v/v) slurry of Ni^2+-ion charged agarose beads (Ni Sepharose 6 Fast Flow; GE Healthcare) in binding buffer was added to the supernatant (0.25 mL 50% slurry per mL of supernatant). The mix was incubated for 1 h with slight shaking and then loaded on a Poly-Prep® chromatography column (0.8×4 cm; Bio-Rad). The beads were washed with 10 mL of binding buffer and 3 mL of wash buffer (20 mM HEPES-KOH pH 7.4, 0.5 M NaCl, 10% (v/v) glycerol, 40 mM imidazole) by gravity flow before elution with 3 mL of elution buffer (20 mM HEPES-KOH pH 7.4, 0.5 M NaCl, 10% (v/v) glycerol, 500 mM imidazole). The buffer was exchanged with storage buffer (20 mM HEPES-KOH pH 7.4, 0.5 M NaCl, 10% (v/v) glycerol, 1 mM dithiothreitol) using an ultra-centrifugal filter (MWCO 10,000; Vivaspin 6, Sartorius Stedim Biotech). The purity of the protein preparation was assessed by SDS-PAGE and the concentration was determined by using a NanoDrop 2000 UV-VIS spectrometer (Thermo Scientific).
Enzyme assays were carried out in 10 mM HEPES-KOH (pH 7.4), 20 mM MgCl2, and 2 mM acetyl-CoA (Sigma-Aldrich; final volume 25 μl). Before determining the kinetics of BAR with different substrates, time-dependent activity of the purified protein was tested at substrate concentrations of 200 μM L-phosphinothricin (glufosinate ammonium, considered as a 1:1 mixture of L- and D-enantiomers; Sigma-Aldrich) or 400 μM (L-aminoadipate and L-tryptophan; Sigma-Aldrich). Reactions were initiated by the addition of purified BAR at 0.03 μM (assays with L-phosphinothricin) or 20 μM (assays with aminoadipate or tryptophan) and incubated at 25° C. for the indicated times (FIGS. 8A-8D). Reactions were stopped by the addition of three volumes of methanol supplemented with 0.5% (v/v) formic acid. Likewise, substrate concentration-dependence was determined by incubating assays for 7.5 min (assays with L-phosphinothricin) or 2 h (assays with aminoadipate or tryptophan; FIG. 3). Control assays (FIG. 3B) were performed with aminoadipate and tryptophan at 8.4 mM, but in the absence of BAR. In addition, D-tryptophan (Sigma-Aldrich) was tested as potential substrate at 8.4 mM (FIG. 3B).
In vitro assays with aminoadipate and tryptophan as substrate were analyzed by LC-MS as described above. In vitro assays with L-phosphinothricin were analyzed by LC-MS as described above, but using a normal-phase chromatography system as follows: an 150 mm amide column (ACQUITY UPLC™ BEH amide, 1.7 μm, 2.1×150 mm, Waters) was developed using LC-MS solvents (Chemie Brunschwig) with a gradient (flow rate of 0.4 mL min^−1) of solvent B (acetonitrile with 0.1% (v/v) formic acid) in solvent A (water with 0.1% (v/v) formic acid) as follows (all (v/v)): 95% for 0.5 min, 95% to 30% in 12 min, 30% for 2 min, 30% to 95% in 1 min and 95% for 5 min. […]

T1 sequence (P16426 whole entry): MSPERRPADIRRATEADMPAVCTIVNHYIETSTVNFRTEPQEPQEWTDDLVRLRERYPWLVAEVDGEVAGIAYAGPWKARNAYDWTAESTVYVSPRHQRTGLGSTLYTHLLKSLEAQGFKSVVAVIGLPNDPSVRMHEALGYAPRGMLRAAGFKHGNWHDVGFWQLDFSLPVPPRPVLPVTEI

| SMILES | catalytic activity of BAR toward aminoadipate compared with tryptophan (in vitro) | in vitro substrate of BAR (N-acetyltransferase activity) | KM values of BAR against aminoadipate and tryptophan (estimated) | Km (N-acetylation by recombinant BAR, Michaelis-Menten kinetics, read-out: apparent KM) |
| --- | --- | --- | --- | --- |
| NC(CCCC(=O)O)C(=O)O [aminoadipate, L-aminoadipate] | relatively higher catalytic activity | in vitro substrates of BAR | at least in the millimolar range | – |
| CP(=O)(O)CC[C@H](N)C(=O)O [phosphinothricin, reference compound] | – | – | – | ~39 µM and 39 µM |
| N[C@@H](Cc1c[nH]c2ccccc12)C(=O)O [tryptophan, L-tryptophan] | – | in vitro substrates of BAR | at least in the millimolar range | – |
